Experimental data as given in patent US11124516B2, “Pyrrolo[1,2-A]pyrimidinyl carboxamide compounds and their use in the treatment of medical disorders” (Bial—Biotech Investments, Inc., priority 2016, dated 2021).
Converted amounts (≈) assume the structure as drawn.

Experiments:
[1] = Compound solubility in water; format: physicochemical
[2] = biological target: T1, glucocerebrosidase (Gcase) (Homo sapiens, UniProt P04062); test: Glucocerebrosidase (Gcase) activation assay, 4-methylumbelliferyl-beta-D-glucopyranoside substrate, fluorescence; format: biochemical; conditions: 0.25 h, 10 nM GCase, 100 nM saposin C; for activation at 0.1 µM: pH 4.7, test compound at 0.1 μM, read-out: Percent Gcase Activation 0.1 μM Test Compound; for activation at 1 µM: pH 4.7, test compound at 1.0 μM, read-out: Percent Gcase Activation 1 μM Test Compound
T1 sequence (P04062 40-536): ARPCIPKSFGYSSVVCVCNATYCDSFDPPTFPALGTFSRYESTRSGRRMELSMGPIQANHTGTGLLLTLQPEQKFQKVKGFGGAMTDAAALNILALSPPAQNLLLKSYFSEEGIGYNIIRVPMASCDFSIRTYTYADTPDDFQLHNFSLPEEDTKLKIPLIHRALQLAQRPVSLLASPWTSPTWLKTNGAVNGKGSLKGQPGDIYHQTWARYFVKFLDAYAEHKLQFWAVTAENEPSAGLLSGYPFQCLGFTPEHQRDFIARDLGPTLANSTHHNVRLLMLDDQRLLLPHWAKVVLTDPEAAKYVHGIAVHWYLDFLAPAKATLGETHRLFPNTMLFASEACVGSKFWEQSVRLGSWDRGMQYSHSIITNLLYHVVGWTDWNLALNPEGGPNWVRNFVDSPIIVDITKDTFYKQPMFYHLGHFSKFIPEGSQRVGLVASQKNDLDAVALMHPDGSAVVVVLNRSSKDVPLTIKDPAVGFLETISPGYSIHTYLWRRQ
Description: The ability of exemplary compounds to activate glucocerebrosidase (Gcase) was measured.
A 484 μL aliquot of a 1.0 mg/mL solution of phosphatidylserine (PS) (Sigma P7769) in chloroform was evaporated under a stream of nitrogen for 1 hour. The lipid film was dissolved over 4 minutes of vigorous vortexing in 40 mL of 176 mM K2HPO4/50 mM citric acid (pH 4.7) containing 7.5 μL of triton X-100, resulting in a mixed micellar preparation with a composition of 0.32 mM triton and 0.37 mol % PS. 4-Methylumbelliferyl-beta-D-glucopyranoside (ACROS-337025000) was dissolved in the micellar solution to a final concentration of 2 mM for use as the reaction substrate.
Test compounds were diluted to the desired concentrations with dimethylsulfoxide (DMSO) from 10 mM stocks, and 0.41 μL of the DMSO compound mixture was added to 100 μL of micellar solution containing 10 nM GCase and 100 nM saposin C (Enzo ALX-201-262-C050). Pre-incubation was allowed to occur for 30 minutes at room temperature, after which the reaction was initiated by combining 25 μL of substrate solution with 25 μL of compound/GCase/saposin mixture. The reaction proceeded for 15 minutes at room temperature and was stopped by adding 150 μL of 1M glycine, pH 12.5. The endpoint of the reaction was monitored by measuring fluorescence intensity (excitation: 365 nm; emission: 440 nm) on a SpectraMax i3 instrument (Molecular Devices). Test compounds were screened at 1.0 and 0.1 μM final concentration, and subsequent 8-point dose response curves were obtained using 3-fold dilutions from a maximum final concentration of 5 μM.
For experiments in which the test compound was used at a concentration of 1.0 μM, the symbol “+” indicates less than 30% Gcase activation; the symbol “++” indicates Gcase activation in the range of 30% up to 60%; and the symbol “+++” indicates Gcase activation greater than 60%. For experiments in which the test compound was used at a concentration of 0.1 μM, the symbol “*” indicates less than 10% Gcase activation; the symbol “**” indicates Gcase activation in the range of 10% up to 20%; and the symbol “***” indicates greater than 20% Gcase activation.

| Structure (SMILES) | solubility [1] [µg/mL] | activation at 0.1 µM [2] [%] | activation at 1 µM [2] [%] |
| --- | --- | --- | --- |
| COC1CCC(Nc2cc(C)n3ccc(C(=O)NC(C)(C)C4CC4)c3n2)CC1 (stereo not drawn) [II1-37] | 10.2 (≈ 26.5 µM) | < 10 | 30 to 60 |
| COCc1cc(C(F)F)nc2c(C(=O)NC(C)(C)C3CC3)ccn12 [III-3] | 3.8 (≈ 11.3 µM) | > 20 | > 60 |
| COCc1cc(C(F)F)n2ccc(C(=O)NC(C)(C)C3CC3)c2n1 [III-4] | 17 (≈ 50.4 µM) | > 20 | > 60 |
| COCc1cc(C(F)F)nc2c(C(=O)NC(C)(C)C3CCC3)ccn12 [III-5] | 3 (≈ 8.54 µM) | 10 to 20 | > 60 |
| C[C@H](NC(=O)c1ccn2c(C(F)F)cc(C(F)F)nc12)C1CC1 [III-6] | 33.5 (≈ 102 µM) | 10 to 20 | > 60 |
| Cc1cc(C(F)F)nc2c(C(=O)N[C@@H](C)C3CC3)ccn12 [III-7] | 9.5 (≈ 32.4 µM) | > 20 | > 60 |
| Cc1cc(C(F)F)n2ccc(C(=O)N[C@@H](C)C3CC3)c2n1 [III-8] | 20.1 (≈ 68.5 µM) | > 20 | > 60 |
| Cc1cc(C)n2ccc(C(=O)NC3(c4ccccc4)CC3)c2n1 [III-18] | 7.7 (≈ 25.2 µM) | 10 to 20 | > 60 |
| Cc1cc(C)n2ccc(C(=O)NC(C)(C)CC3CC3)c2n1 [III-19] | 14.7 (≈ 51.5 µM) | > 20 | > 60 |
| COCC(NC(=O)c1ccn2c(C)cc(C)nc12)c1ccccc1 (stereo not drawn) [III-20] | 13.7 (≈ 42.4 µM) | < 10 | > 60 |
| Cc1cc(C)n2ccc(C(=O)NC3(C4CC4)CC3)c2n1 [III-22] | 21.4 (≈ 79.5 µM) | 10 to 20 | > 60 |
| Cc1cc(C)n2ccc(C(=O)NC(CC(C)C)C3CC3)c2n1 (stereo not drawn) [III-24] | 10.9 (≈ 36.4 µM) | > 20 | > 60 |
| Cc1cc(C)n2cc(C3CC3)c(C(=O)NC(C)(C)C3CC3)c2n1 [III-25] | 0.3 (≈ 0.963 µM) | < 10 | 30 to 60 |
| Cc1cc(C)n2c(C)cc(C(=O)N[C@@H](C)C3CC3)c2n1 [III-26] | 8.6 (≈ 31.7 µM) | 10 to 20 | > 60 |
| Cc1cc(C)n2cc(C)c(C(=O)N[C@@H](C)C3CC3)c2n1 [III-27] | 8.6 (≈ 31.7 µM) | 10 to 20 | > 60 |
| Cc1cc(-c2cocn2)nc2c(C(=O)N[C@H]3CCCc4ccccc43)ccn12 [III-28] | 1.4 (≈ 3.76 µM) | < 10 | 30 to 60 |

| Structure (SMILES) | solubility [1] [µg/mL] | activation at 0.1 µM [2] [%] | activation at 1 µM [2] [%] |
| --- | --- | --- | --- |
| Cc1cc(C)n2ccc(C(=O)NC3(c4ccc(F)cc4)CCOCC3)c2n1 [III-29] | 2.4 (≈ 6.53 µM) | < 10 | 30 to 60 |
| Cc1cc(-c2ccc(F)cc2)nc2c(C(=O)N[C@@H](C)C3CC3)ccn12 [III-30] | 0.1 (≈ 0.296 µM) | > 20 | > 60 |
| Cc1cc(-c2ccc(F)cc2)n2ccc(C(=O)N[C@@H](C)C3CC3)c2n1 [III-31] | 0.7 (≈ 2.07 µM) | < 10 | 30 to 60 |
| Cc1ccnc2c(C(=O)NC3(c4ccccc4OC4CC4)CC3)ccn12 [III-34] | 6.3 (≈ 18.1 µM) | < 10 | 30 to 60 |
| Cc1cc(N2CCOCC2)nc2c(C(=O)NC(C)(C)C3CC3)ccn12 [III-35] | 14 (≈ 40.9 µM) | 10 to 20 | > 60 |
| Cc1cc(C2CCOCC2)nc2c(C(=O)NC(C)(C)C3CC3)ccn12 [III-36] | 21.3 (≈ 62.4 µM) | < 10 | 30 to 60 |
| Cc1cc(NC2CCOCC2)nc2c(C(=O)NC(C)(C)C3CC3)ccn12 [III-38] | 10.1 (≈ 28.3 µM) | 10 to 20 | > 60 |
| Cc1cc(N2CCC(F)(F)CC2)nc2c(C(=O)NC(C)(C)C3CC3)ccn12 [III-44] | 1.4 (≈ 3.72 µM) | 10 to 20 | > 60 |
| Cc1cc(NC2CC3CCC(C2)O3)nc2c(C(=O)NC(C)(C)C3CC3)ccn12 (stereo not drawn) [III-45] | 12.3 (≈ 32.2 µM) | < 10 | 30 to 60 |
| CC(C)(NC(=O)c1ccn2ccc(-c3ccc(F)cc3)nc12)C1CC1 [III-46] | 0.3 (≈ 0.889 µM) | < 10 | 30 to 60 |
| C[C@H](NC(=O)c1ccn2ccc(-c3ccc(F)cc3)nc12)C1CC1 [III-47] | 0.1 (≈ 0.309 µM) | < 10 | 30 to 60 |
| CO[C@H]1CC[C@H](NC(=O)c2ccn3c(C)cc(-c4ccc(F)cc4)nc23)CC1 [III-48] | 0.9 (≈ 2.36 µM) | 10 to 20 | > 60 |
| C[C@H](NC(=O)c1ccn2cc(-c3ccc(F)cc3)cnc12)C1CC1 [III-49] | 0.3 (≈ 0.928 µM) | < 10 | < 30 |
| Cc1cc(C)n2ccc(C(=O)NC(Cc3ccccc3)c3ccccc3)c2n1 (stereo not drawn) [IV-38] | 0.2 (≈ 0.541 µM) | – | – |
| Cc1cc(C)n2ccc(C(=O)NC(C)c3ccccc3F)c2n1 (stereo not drawn) [IV-108] | – | 10 to 20 | > 60 |

More lines, now with the values ahead:

| solubility [1] [µg/mL] | activation at 0.1 µM [2] [%] | activation at 1 µM [2] [%] | Structure (SMILES) |
| --- | --- | --- | --- |
| 19.8 (≈ 65.7 µM) | > 20 | > 60 | COCc1cc(C)nc2c(C(=O)NC(C)(C)C3CC3)ccn12 [III 16] |
| 11 (≈ 38.4 µM) | > 20 | > 60 | CNc1cc(C)n2ccc(C(=O)NC(C)(C)C3CC3)c2n1 [III-10] |
| 1.1 (≈ 3.77 µM) | > 20 | > 60 | Cc1cc(Cl)nc2c(C(=O)NC(C)(C)C3CC3)ccn12 [III-11] |
| 5.8 (≈ 19.9 µM) | 10 to 20 | > 60 | Cc1cc(Cl)n2ccc(C(=O)NC(C)(C)C3CC3)c2n1 [III-12] |
| 11.5 (≈ 40 µM) | 10 to 20 | > 60 | COc1cc(C)n2ccc(C(=O)NC(C)(C)C3CC3)c2n1 [III-13] |
| 2.9 (≈ 8.62 µM) | 10 to 20 | > 60 | Cc1cc(Br)nc2c(C(=O)NC(C)(C)C3CC3)ccn12 [III-14] |
| 21.9 (≈ 72.7 µM) | 10 to 20 | > 60 | COCc1cc(C)n2ccc(C(=O)NC(C)(C)C3CC3)c2n1 [III-15] |
| 6.3 (≈ 22.9 µM) | 10 to 20 | > 60 | Cc1cc(F)nc2c(C(=O)NC(C)(C)C3CC3)ccn12 [III-17] |
| 18.7 (≈ 68.9 µM) | > 20 | > 60 | Cc1cc(C)n2ccc(C(=O)NC(C)(C)C3CC3)c2n1 [III-23] |
| 0.7 (≈ 2.09 µM) | > 20 | > 60 | Cc1cc(-c2ccccn2)nc2c(C(=O)NC(C)(C)C3CC3)ccn12 [III-39] |
| 3.5 (≈ 10.5 µM) | 10 to 20 | > 60 | Cc1cc(-c2ccncc2)nc2c(C(=O)NC(C)(C)C3CC3)ccn12 [III-40] |
| 2.5 (≈ 7.48 µM) | > 20 | > 60 | Cc1cc(-c2cccnc2)nc2c(C(=O)NC(C)(C)C3CC3)ccn12 [III-41] |
| 3.4 (≈ 10.1 µM) | 10 to 20 | > 60 | Cc1cc(-c2cncnc2)nc2c(C(=O)NC(C)(C)C3CC3)ccn12 [III-42] |
